Data: paper PMC3541985, “Improvement of Catalytic Efficiency, Thermo-stability and Dye Decolorization Capability of Pleurotus ostreatus IBL-02 laccase by Hydrophobic Sol Gel Entrapment” (Chemistry Central Journal, 2012)

Tested on: T1, P. ostreatus IBL-02 laccase
T1 construct: gene pox2
Settings: free (not immobilised) enzyme; ABTS varied 0.1-1 mM, so the printed unit mM is doubtful; standard assay malonate buffer pH 4.5, 25°C

Km: 33 mM
SMILES: CCn1c(=NN=c2sc3cc(S(=O)(=O)O)ccc3n2CC)sc2cc(S(=O)(=O)O)ccc21 [ABTS, 2, 2′-azino-bis-3-ethylbenzothiazoline-6-sulfonic acid]
